This is an account of results in PubChem BioAssay (NCI).

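Method: 48-hour compound exposure of cells in 96-well plates, five concentrations, linear interpolation of endpoints. GI50 is the concentration that inhibits growth by half. Definition used: TGI = concentration required for complete inhibition of growth.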 Some results are limits rather than exact numbers.

In the first assay the test system is SF-295 CNS. As to the kind of experiment: NCI tumour cell line growth inhibition, 48 h.
As to `CN(C)c1ccc2c(NCCCCCCNc3ccnc4cc(N(C)C)ccc34)ccnc2c1`, the TGI came to 40.3 µM.

Consider `Nc1cc(=O)[nH]c(SC2=NC(N)CC(O)C2)n1` (centres undefined), for which the TGI is greater than 100 µM.

For `CC(=O)[O][Pb]([O]C(C)=O)([c]1ccccc1)[c]1ccccc1`, the GI50 is 46.6 µM and the TGI is greater than 100 µM.

Compound `CN1CCc2c1nc(-c1ccccc1)c1c2N(C)CC1` gave a TGI greater than 100 µM.

Regarding `CCC[CH2][Sn]([CH2]CCC)([O]C(C)=O)[O]C(C)=O`, the GI50 is 1.85 µM and the TGI was 3.79 µM.

`O=C(O)[C@@H]1C2CC([C@@H]1C(=O)O)[C@H](N1C(=O)CCC1=O)[C@@H]2Br` (some centres undefined): the TGI is greater than 100 µM.

`COC(=O)CCC(=O)N1Cc2cc(C)ccc2N(C(=O)CCC(=O)OC)Cc2cc(C)ccc21` returned a TGI greater than 100 µM.

The compound `C=C1C(=O)O[C@H]2C[C@@H](C)[C@@H]3CC(=O)OC[C@@]3(C)CC12` (some centres undefined) gave a TGI of 76.2 µM.

As to `CCOC(=O)c1c2c(n(CC(C)C)c1C)-c1nc[nH]c1C(=O)C2=O`, the GI50 is 19.2 µM and the TGI amounted to 35.9 µM.

The compound `CS(=O)(=O)CC1=Nc2nnc(CCCCCCCc3nnc4n3C(=O)C(CS(C)(=O)=O)=N4)n2C1=O` came in with a TGI greater than 100 µM.

Consider `COc1ccccc1[N-]C(C1=C([O-])c2ccccc2C1=O)c1ccccc1.COc1ccccc1[N-]C(C1=C([O-])c2ccccc2C1=O)c1ccccc1.[Cu+2]` (centres undefined), for which the GI50 is 5.33 µM and the TGI is greater than 100 µM.

As to `COc1cc2c(cc1OC)-c1ccc3cc4c(cc3c1N(CCN1CCCC1)C2)OCO4`, the GI50 was 0.441 µM and the TGI is 3.1 µM.

The compound `O=C(NCCCCCCNC(=O)c1cccc2ccccc12)c1cccc2ccccc12` gave a TGI of 3.4 µM.

The compound `COC12C=CC(CC1)c1c(O)ccc(O)c12` (centres undefined) returned a TGI greater than 100 µM.

`CC1=C2CCCC2C/C(=N/Nc2ccc([N+](=O)[O-])cc2[N+](=O)[O-])CC1` (centres undefined) gave a TGI greater than 100 µM.

Regarding `COc1cc2cc(Oc3ccc(NC(=O)Nc4ccc(Cl)c(C(F)(F)F)c4)cc3)c(C)nc2cc1OCCN1CCCCC1`, the GI50 is 1.81 µM and the TGI turned out to be 3.3 µM.

On to `C=CCC(N[C@H](CO)C(C)C)c1cn(C(=O)OCC)c2ccccc12` (some centres undefined), for which the GI50 was 15.9 µM and the TGI was found to be 38.1 µM.

Turning to `CC1CC2C(=O)NC(=O)C2c2[nH]c3ccccc3c21` (centres undefined), the TGI was greater than 100 µM.

For `CC1(C)CCC2(C(=O)OC3OC(CO)C(O)C(O)C3O)CC[C@]3(C)C(=CCC4C5(C)CC[C@H](OC6OC(C(=O)O)C(O)C(O)C6O)C(C)(C)C5CCC43C)C2C1` (some centres undefined), the GI50 is 2.56 µM and the TGI is greater than 50 µM.

Take `Cc1ccc2c(c1)C1(C)OC(CC(N)C1O)O2` (centres undefined): the TGI was greater than 100 µM.

As for `COC(=O)[C@@H]1CSC(=S)N1C(=O)C[C@H]1CC=CC[C@H]1CC(=O)Sc1ccccc1`, the TGI came out at 45.3 µM.

Take `CC1(Sc2ccccc2)CN(Cc2ccccc2)C1=O` (centres undefined): the TGI was greater than 100 µM.

In the case of `C=C1C(=O)OC2CC3(C)C=CC(=O)C(=C)C3CC12` (centres undefined), the TGI amounted to 26.8 µM.

`CCOP(=O)(OCC)C1CCCCOC1=O` (centres undefined) came in with a TGI greater than 100 µM.

Another assay relates to ACHN renal. As to the kind of experiment: NCI tumour cell line growth inhibition, 48 h.
As for `CN(C)c1ccc2c(NCCCCCCNc3ccnc4cc(N(C)C)ccc34)ccnc2c1`, the TGI is 33.6 µM.

`Nc1cc(=O)[nH]c(SC2=NC(N)CC(O)C2)n1` (centres undefined) displayed a TGI greater than 100 µM.

In the case of `CC(=O)[O][Pb]([O]C(C)=O)([c]1ccccc1)[c]1ccccc1`, the GI50 was greater than 100 µM and the TGI was greater than 100 µM.

In the case of `CN1CCc2c1nc(-c1ccccc1)c1c2N(C)CC1`, the TGI is greater than 100 µM.

Turning to `CCC[CH2][Sn]([CH2]CCC)([O]C(C)=O)[O]C(C)=O`, the GI50 is 1.44 µM and the TGI stood at 2.75 µM.

For the compound `O=C(O)[C@@H]1C2CC([C@@H]1C(=O)O)[C@H](N1C(=O)CCC1=O)[C@@H]2Br` (some centres undefined), the TGI was greater than 100 µM.

`COC(=O)CCC(=O)N1Cc2cc(C)ccc2N(C(=O)CCC(=O)OC)Cc2cc(C)ccc21` registered a TGI greater than 100 µM.

The compound `C=C1C(=O)O[C@H]2C[C@@H](C)[C@@H]3CC(=O)OC[C@@]3(C)CC12` (some centres undefined) had a TGI of 60 µM.

Turning to `CCOC(=O)c1c2c(n(CC(C)C)c1C)-c1nc[nH]c1C(=O)C2=O`, the GI50 is 14.2 µM and the TGI was determined as 27.2 µM.

In the case of `CS(=O)(=O)CC1=Nc2nnc(CCCCCCCc3nnc4n3C(=O)C(CS(C)(=O)=O)=N4)n2C1=O`, the TGI is greater than 100 µM.

For the compound `COc1ccccc1[N-]C(C1=C([O-])c2ccccc2C1=O)c1ccccc1.COc1ccccc1[N-]C(C1=C([O-])c2ccccc2C1=O)c1ccccc1.[Cu+2]` (centres undefined), the GI50 was 10.9 µM and the TGI was determined as 74.7 µM.

Regarding `COc1cc2c(cc1OC)-c1ccc3cc4c(cc3c1N(CCN1CCCC1)C2)OCO4`, the GI50 is 0.514 µM and the TGI was 2.43 µM.

`O=C(NCCCCCCNC(=O)c1cccc2ccccc12)c1cccc2ccccc12`: the TGI was greater than 100 µM.

Take `COC12C=CC(CC1)c1c(O)ccc(O)c12` (centres undefined): the TGI was greater than 61.4 µM.

`CC1=C2CCCC2C/C(=N/Nc2ccc([N+](=O)[O-])cc2[N+](=O)[O-])CC1` (centres undefined) displayed a TGI greater than 100 µM.

Turning to `COc1cc2cc(Oc3ccc(NC(=O)Nc4ccc(Cl)c(C(F)(F)F)c4)cc3)c(C)nc2cc1OCCN1CCCCC1`, the GI50 was 1.57 µM and the TGI is 2.92 µM.

For the compound `C=CCC(N[C@H](CO)C(C)C)c1cn(C(=O)OCC)c2ccccc12` (some centres undefined), the GI50 was 32.1 µM and the TGI was greater than 100 µM.

As to `CC1CC2C(=O)NC(=O)C2c2[nH]c3ccccc3c21` (centres undefined), the TGI was greater than 100 µM.

Consider `CC12CCC(=O)C(O1)C1C(=O)c3cc4ccccc4cc3C(=O)C12` (centres undefined), for which the GI50 was 15.8 µM and the TGI came out at 31.1 µM.

`CC1(C)CCC2(C(=O)OC3OC(CO)C(O)C(O)C3O)CC[C@]3(C)C(=CCC4C5(C)CC[C@H](OC6OC(C(=O)O)C(O)C(O)C6O)C(C)(C)C5CCC43C)C2C1` (some centres undefined): the GI50 was 6.3 µM and the TGI stood at 12.6 µM.

The compound `Cc1ccc2c(c1)C1(C)OC(CC(N)C1O)O2` (centres undefined) gave a TGI greater than 100 µM.

`COC(=O)[C@@H]1CSC(=S)N1C(=O)C[C@H]1CC=CC[C@H]1CC(=O)Sc1ccccc1` had a TGI of 32.1 µM.

In turn, `CC1(Sc2ccccc2)CN(Cc2ccccc2)C1=O` (centres undefined) came in with a TGI greater than 100 µM.
